Structures are written as SMILES.

Test [1] has as its system PDX microcancers (GBM8 patient-derived xenograft glioblastoma cells). The test can be described thus: On-chip drug testing of PDX microcancer spheroids in microchip hanging drop 3D culture. The class given is cell-based. Particulars: Homo sapiens; measured on day 9 post cell seeding; drug loaded on day 3; 500 cells/well; 12 wells per concentration, 10 uM to 100 pM.
Description: The harvest cells from the xenograft represented the cellular diversity of the PDX brain tumor.
Dasatinib was selected for drug testing, and introduced after 3 days of culture in the chip. […] One process for introducing the drugs on chip is as follows. The chip was kept upright inside mineral oil and centrifuged briefly to bring down the spheroids. Next, appropriate volume of media with drugs is loaded on chip through oil and incubated for 30 minutes to reach a homogeneous concentration. The volume of drugs loaded depends on the number of spheroids being cultured or wells filled with media on chip, which in turn, are defined by the size and numbers of PDMS reservoirs initially used for cell seeding. The volume of media with drugs added is usually 5 times the volume of wells containing spheroids. […] The chip was partitioned as before by using oil, inverted, and daily measurements of green and red fluorescence were taken.
Test [2] has as its system LN229 microcancer spheroids. Put plainly: On-chip drug testing of LN229 microcancer spheroids in microchip hanging drop 3D culture. The class given is cell-based. As to conditions: Homo sapiens, LN-229; measured on day 9 post cell seeding; drug loaded on day 3; 500 cells/well; 12 wells per concentration, 10 uM to 100 pM. The source says: In contrast, conventional hanging drop methods used to extract the formed tumor spheroids and then performing an end-point only analysis in a separate well plate. Dasatinib was selected for drug testing, and introduced after 3 days of culture in the chip. […] One process for introducing the drugs on chip is as follows. The chip was kept upright inside mineral oil and centrifuged briefly to bring down the spheroids. Next, appropriate volume of media with drugs is loaded on chip through oil and incubated for 30 minutes to reach a homogeneous concentration. […] The chip was partitioned as before by using oil, inverted, and daily measurements of green and red fluorescence were taken. […]
The total number of cells were extracted from the off-chip culture into a 1.7 mL tube and then centrifuged at 200 g for 5 min so that all cells settle to the bottom of the tube. […] To stop the PKH 26 Red Fluorescence staining, media with FBS was added to the cell and dye solution. […]
Spheroid Imaging: Real time imaging was done daily after seeding with an upright Olympus BX63 fluorescence microscope with a 10× objective (0.3 NA). […] Tiles and Z-stacks of 10 um slice thickness of the area with spheroids or shapes were taken of chips in bright-field, GFP and RFP fluorescence wavelengths. The CellTox green fluorescence dye was captured using the GFP fluorescence and the PKH Red dye was captured using the RFP. […]

In general, IC50 refers to the concentration that gives 50% inhibition. Turning to `Cc1nc(Nc2ncc(C(=O)Nc3c(C)cccc3Cl)s2)cc(N2CCN(CCO)CC2)n1` [Dasatinib], the figures for the IC50 in test [1] and in test [2] were 13.8 nM and 95.9 nM, respectively.

The values are drawn from US11845084B2, “Microchip high density hanging drop three-dimension culture platform” (The Board of Trustees of the University of Illinois, priority 2020, dated 2023).
